Assay results published in PubChem BioAssay AID1963442 (Molecular Pharmacology Branch, DTP, NCI, 2024).

Test system: MPNST complex spheroid with HUVEC/MSC, growth, % test/control
Test: Anticancer human tumor MPNST cell line growth inhibition [Asc];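 note: compounds left on spheroids for seven days before reading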
Details: for IC50: curve of first compound; for viability, T/C: stronger effect = lower value
Procedure: Multicellular complex tumor spheroid response to apoptosis pathway targeting inhibitors Alrizomadlin, Pelcitoclax, and Dasminapant in combination with a variety of drugs and investigational agents in selected tumor cell lines
The MDM2 inhibitor alrizomadlin, the Bcl-2/Bcl-xL inhibitor pelcitoclax, and the IAPs inhibitor dasminapant were evaluated both individually and in combination with standard of care and investigational anticancer small molecules within a complex spheroid model of solid tumors. . Complex spheroids include a stromal component modeled by human endothelial cells (HUVEC) and fibroblasts modeled by human mesenchymal stem cells (MSCs). The concentration ranges selected for each drug and investigational agent were based upon clinically achievable concentrations if the clinical Cmax of the agent was known.
Compounds. The drugs and investigational agents: alrizomadlin (APG-115; NSC831270), pelcitoclax (APG-1252; NSC835773), dasminapant (APG-1387;NSC834197), TAK-243 (NSC785004), copanlisib (NSC809693), olaparib (NSC753686), talazoparib (NSC767125), cobimetinib (NSC 768068), eltanexor (KPT-8602, NSC 794443), abemaciclib (NSC 768073), sotorasib (NSC818433), adagrasib (NSC 831453), MRTX-1133 (NSC 836407), Iadademestat (ORY1001, NSC 806812), and RMC-4630 (NSC839698), were obtained from the NCI Developmental Therapeutics Program Chemical Repository. The FDA-approved anticancer drug set is available from the Developmental Therapeutics Program at https://dtp.cancer.gov/organization/dscb/obtaining/available plates.htm. […] The stock solutions were prepared in dimethyl sulfoxide (DMSO, Sigma-Aldrich, St. Louis, MO, cat. D2650) at 800-fold the tested concentration and stored at -70 degrees C prior to their use. All drugs and investigational agents were tested over a range starting from a high concentration at or near the clinical Cmax and decreasing in half-log increments. If the clinical Cmax for an agent had not been determined, the highest concentration tested was 10 microM.
The patient-derived cancer (PDC) cell lines include five colon adenocarcinomas: 186277-243-T-J2-PDC, 616215-338-R-J1-PDC, 439559-082-T-J2-PDC, 463943-066-T-J2-PDC, and 519858-162-T-J1-PDC; three pancreatic carcinomas: 323965-272-R-J2-PDC, 521955-158-R6-J3-PDC, and 521955-158-R2-J5-PDC; two uterine sarcomas: 327498-152-R-J2-PDC and 993429-296-R-J1-PDC; two rhabdomyosarcomas: 755483-174-R-J1-PDC and 772245-204-R-J1-PDC; two soft tissue sarcomas: 126254-015-R-J1-PDC and 494315-158-R-J1-PDC; two malignant fibrous histiocytomas: 317291-083-R-J1-PDC and 596521-263-R-J1-PDC; two breast carcinomas: 171881-019-R-J1-PDC and 885512-296-R-J2-PDC; and one ovarian carcinoma: 6556581-035-R-J-PDC were obtained from the NCI PDMR, (https://pdmr.cancer.gov). The established cell lines HSSY-2 synovial sarcoma (RRID:CVCL 8719), SYO-1 synovial sarcoma (RRID:CVCL_7146), MPNST malignant peripheral neural sheath tumor were obtained from the Sloan Kettering Institute. The following established cell lines were purchased from the American Type Culture Collection (ATCC, Manassas, VA), Sor the received from the NCI repository:, PANC-1 pancreatic carcinoma (CRL-1469, RRID:CVCL_0480), OVCAR-5 ovarian carcinoma (RRID:CVCL_1628), OVCAR-8 ovarian carcinoma (RRID:CVCL_1629), , MCF-7 breast carcinoma (CRL-12584, RRID:CVCL_0031), MDA-MB-231 breast carcinoma (CRL-12532, RRID:CVCL_0062), NCI-H1876 small cell lung carcinoma (CRL-5902, RRID:CVCL_1503), NCI-H510A small cell lung carcinoma (HTB-184, RRID:CVCL_1565), NCI-H1417 (CRL-5869, RRID:CVCL_1469), and NCI-H196 small cell lung carcinoma (CRL-5823, RRID:CVCL_1509). Dr. Peter Houghton (Greehey Children's Cancer Research Institute, University of Texas Health Science Center, San Antonio, TX) provided Rh-18 rhabdomyosarcoma (RRID:CVCL_1659). Pooled donor human umbilical vein endothelial cells (HUVEC, Lonza, cat. CC-2519) and human mesenchymal stem cells (hMSC, Lonza, cat. PT-2501) were purchased from Lonza (Walkersville, MD).
Cell Culture. […]

[1] = second compound 0.03 µM, first compound 0.0316 µM
[2] = second compound 0.03 µM, first compound 0.1 µM
[3] = second compound 0.0949 µM, first compound 0.0316 µM
[4] = second compound 0.0949 µM, first compound 0.1 µM
[5] = second compound 0.3 µM, first compound 0.0316 µM
[6] = second compound 0.3 µM, first compound 0.1 µM
[7] = second compound 0.949 µM, first compound 0.0316 µM
[8] = second compound 0.949 µM, first compound 0.1 µM
[9] = second compound 3 µM, first compound 0.0316 µM
[10] = second compound 3 µM, first compound 0.1 µM

Cn1ncnc1[C@H]1c2n[nH]c(=O)c3cc(F)cc(c23)N[C@@H]1c1ccc(F)cc1 + CCN1C(C(=O)NC23CCC(C(=O)O)(CC2)CC3)C(c2cccc(Cl)c2F)C2(C(=O)Nc3cc(Cl)ccc32)C12CCCCC2
IC50 (second compound 0.03 µM): 47.2 nM
IC50 (second compound 0.0949 µM): > 100 nM
IC50 (second compound 0.3 µM): > 100 nM
IC50 (second compound 0.949 µM): > 100 nM
IC50 (second compound 3 µM): > 100 nM
viability, T/C (second compound 0.03 µM, first compound 0.000316 µM): 84.6%
viability, T/C (second compound 0.03 µM, first compound 0.001 µM): 82%
viability, T/C (second compound 0.03 µM, first compound 0.00316 µM): 80.2%
viability, T/C (second compound 0.03 µM, first compound 0.01 µM): 65.9%
viability, T/C [1]: 54.4%
viability, T/C [2]: 43.4%
viability, T/C (second compound 0.0949 µM, first compound 0.000316 µM): 106%
viability, T/C (second compound 0.0949 µM, first compound 0.001 µM): 91.9%
viability, T/C (second compound 0.0949 µM, first compound 0.00316 µM): 97.7%
viability, T/C (second compound 0.0949 µM, first compound 0.01 µM): 95.5%
viability, T/C [3]: 74.9%
viability, T/C [4]: 52.1%
viability, T/C (second compound 0.3 µM, first compound 0.000316 µM): 106%
viability, T/C (second compound 0.3 µM, first compound 0.001 µM): 92.9%
viability, T/C (second compound 0.3 µM, first compound 0.00316 µM): 88.4%
viability, T/C (second compound 0.3 µM, first compound 0.01 µM): 91.7%
viability, T/C [5]: 91.1%
viability, T/C [6]: 57.7%
viability, T/C (second compound 0.949 µM, first compound 0.000316 µM): 80.2%
viability, T/C (second compound 0.949 µM, first compound 0.001 µM): 109%
viability, T/C (second compound 0.949 µM, first compound 0.00316 µM): 79.8%
viability, T/C (second compound 0.949 µM, first compound 0.01 µM): 90.6%
viability, T/C [7]: 81.2%
viability, T/C [8]: 70.7%
viability, T/C (second compound 3 µM, first compound 0.000316 µM): 97.1%
viability, T/C (second compound 3 µM, first compound 0.001 µM): 94.3%
viability, T/C (second compound 3 µM, first compound 0.00316 µM): 89.8%
viability, T/C (second compound 3 µM, first compound 0.01 µM): 86.6%
viability, T/C [9]: 73.6%
viability, T/C [10]: 72.7%

O=C(c1cc(Cc2n[nH]c(=O)c3ccccc23)ccc1F)N1CCN(C(=O)C2CC2)CC1 + CCN1C(C(=O)NC23CCC(C(=O)O)(CC2)CC3)C(c2cccc(Cl)c2F)C2(C(=O)Nc3cc(Cl)ccc32)C12CCCCC2
IC50 (second compound 0.03 µM): > 10000 nM
IC50 (second compound 0.0949 µM): > 10000 nM
IC50 (second compound 0.3 µM): > 10000 nM
IC50 (second compound 0.949 µM): > 10000 nM
IC50 (second compound 3 µM): > 10000 nM
viability, T/C [1]: 122%
viability, T/C [2]: 113%
viability, T/C (second compound 0.03 µM, first compound 0.316 µM): 101%
viability, T/C (second compound 0.03 µM, first compound 1 µM): 80.6%
viability, T/C (second compound 0.03 µM, first compound 3.16 µM): 65.8%
viability, T/C (second compound 0.03 µM, first compound 10 µM): 50.1%
viability, T/C [3]: 141%
viability, T/C [4]: 115%
viability, T/C (second compound 0.0949 µM, first compound 0.316 µM): 121%
viability, T/C (second compound 0.0949 µM, first compound 1 µM): 106%
viability, T/C (second compound 0.0949 µM, first compound 3.16 µM): 97.9%
viability, T/C (second compound 0.0949 µM, first compound 10 µM): 61.5%
viability, T/C [5]: 122%
viability, T/C [6]: 115%
viability, T/C (second compound 0.3 µM, first compound 0.316 µM): 117%
viability, T/C (second compound 0.3 µM, first compound 1 µM): 93.1%
viability, T/C (second compound 0.3 µM, first compound 3.16 µM): 100%
viability, T/C (second compound 0.3 µM, first compound 10 µM): 71.4%
viability, T/C [7]: 111%
viability, T/C [8]: 113%
viability, T/C (second compound 0.949 µM, first compound 0.316 µM): 118%
viability, T/C (second compound 0.949 µM, first compound 1 µM): 100%
viability, T/C (second compound 0.949 µM, first compound 3.16 µM): 100%
viability, T/C (second compound 0.949 µM, first compound 10 µM): 78.2%
viability, T/C [9]: 105%
viability, T/C [10]: 107%
viability, T/C (second compound 3 µM, first compound 0.316 µM): 116%
viability, T/C (second compound 3 µM, first compound 1 µM): 90.9%
viability, T/C (second compound 3 µM, first compound 3.16 µM): 88.8%
viability, T/C (second compound 3 µM, first compound 10 µM): 72.2%
